Results: PubChem BioAssay (NCI)
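Results reflect a 48-hour exposure of cells in 96-well plates to compound at five concentrations. GI50: concentration for 50% inhibition of growth. TGI: concentration producing complete growth inhibition.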

Key:
Experiment in all cases: growth of human tumour cells (NCI), 48 h
MDA-MB-435 = tested on: MDA-MB-435
EKVX NSCLC = tested on: EKVX NSCLC
T-47D breast = tested on: T-47D breast
NCI/ADR-RES ovarian = tested on: NCI/ADR-RES ovarian
A498 renal = tested on: A498 renal
OVCAR-3 ovarian = tested on: OVCAR-3 ovarian
A549 NSCLC = tested on: A549 NSCLC
HT29 colon = tested on: HT29 colon
COLO 205 colon = tested on: COLO 205 colon
SK-OV-3 ovarian = tested on: SK-OV-3 ovarian

Compound | TGI (MDA-MB-435) [µM] | TGI (EKVX NSCLC) [µM] | TGI (T-47D breast) [µM] | TGI (NCI/ADR-RES ovarian) [µM] | TGI (A498 renal) [µM] | TGI (OVCAR-3 ovarian) [µM] | TGI (A549 NSCLC) [µM] | TGI (HT29 colon) [µM] | TGI (COLO 205 colon) [µM] | TGI (SK-OV-3 ovarian) [µM] | GI50 (SK-OV-3 ovarian) [µM] | GI50 (MDA-MB-435) [µM] | GI50 (EKVX NSCLC) [µM] | GI50 (T-47D breast) [µM] | GI50 (NCI/ADR-RES ovarian) [µM] | GI50 (A498 renal) [µM] | GI50 (OVCAR-3 ovarian) [µM] | GI50 (A549 NSCLC) [µM] | GI50 (HT29 colon) [µM] | GI50 (COLO 205 colon) [µM]
O=c1[nH]nc(-c2ccccc2)n1/N=C\c1ccccc1 | > 100 | > 100 | > 100 | > 100 | > 100 | > 100 | > 100 | > 100 | > 100 |  |  |  |  |  |  |  |  |  |  | 
COc1c(O)c(C=O)c2c(O)c(-c3c(C)cc4c(C(C)C)c(OC)c(O)c(C=O)c4c3O)c(C)cc2c1C(C)C |  | 17.7 |  |  | 24.7 | 10.7 | 11.6 | 15.3 | 4 | 14.2 |  |  |  |  |  |  |  |  |  | 
CCNC(=S)N=Nc1c(O)[nH]c2ccc([N+](=O)[O-])cc12 | > 100 | > 100 | > 100 | > 100 | 89.3 | > 100 | > 100 | > 100 | > 100 | > 100 |  |  |  |  |  |  |  |  |  | 
COc1ccc(N2C(=O)CC(=O)N(C(=O)COc3ccc(OCC(=O)N4C(=O)CC(=O)N(c5ccc(OC)cc5)C4=S)cc3)C2=S)cc1 | > 100 | > 100 |  | > 100 | > 100 |  | > 100 | > 100 | 39.8 | > 100 |  |  |  |  |  |  |  |  |  | 
C=C[C@@H](C)[C@H](NS(=O)(=O)c1ccc(C)cc1)C(=O)OCC | 47.2 | > 100 |  | > 100 | > 100 | 43.1 | > 100 | 59.9 | > 100 | > 100 |  |  |  |  |  |  |  |  |  | 
Nc1ccc(S(=O)(=O)c2ccc(NCN3C(=O)NC(=O)C(=O)C3=O)cc2)cc1 | > 100 | > 100 | > 100 | > 100 | > 100 | > 100 | > 100 | > 100 |  |  |  |  |  |  |  |  |  |  |  | 
O=C(N/N=C/C=C/c1ccc([N+](=O)[O-])o1)c1cc2ccccc2cc1O | 2.38 | 9.48 | 3.68 | 7.27 | 8.95 | 5.83 | 12.2 | 7.05 | 3.35 | 38.5 | 3.36 | 0.506 | 2.64 | 1.44 | 1.36 | 2.48 | 0.562 | 2.75 | 2.15 | 1.84
CO/N=C1\CC(NC(=O)CNC(=O)OC(C)(C)C)c2ccsc21 (stereo not given) | > 100 | > 100 | > 100 | > 100 | > 100 | > 100 | > 100 | > 100 | > 100 | > 100 |  |  |  |  |  |  |  |  |  | 
OC1(c2ccccc2)CCN(Cc2c[nH]c3ccccc23)CC1 | > 100 | > 100 | > 100 | > 100 | > 100 | > 100 | > 100 | > 100 | 31.7 | > 100 |  |  |  |  |  |  |  |  |  | 
Cc1cc(-c2nc3cc(F)ccc3s2)ccc1NC(=O)[C@@H](N)CCCCN | 3.69 | 16.5 | 17.3 | 37.2 | 23.9 | 22.5 | 3.88 | 9.61 | 9.35 | 25.7 |  |  |  |  |  |  |  |  |  | 
CCN(CC)N1C(=O)[N+](CC)(CC)N=C1[O-] | > 100 | > 100 | > 100 | > 100 | > 100 | > 100 | > 100 | > 100 | > 100 | > 100 |  |  |  |  |  |  |  |  |  | 
NS(=O)(=O)c1ccc(/C=C/c2ccc(F)cc2)cc1 | > 100 | > 100 | 57.6 | > 100 | > 100 | 57 | 37.1 | > 100 | > 100 | 57.6 |  | 27 |  |  |  |  |  | 8.93 | 29.4 | 
CC(=O)Oc1cc2c(cc1OC(C)=O)OCC(c1ccc(C)cc1)C2 (stereo not given) |  | 42.1 |  | 58.3 | 15.3 | 41 | 64.6 | 73.6 | 41.8 | 112 |  |  |  |  |  |  |  |  |  | 
CSCCC(N)C(=O)NCCNc1ccc(NCCNC(=O)C(N)CCSC)c2c1C(=O)c1ccccc1C2=O (stereo not given) | 4.59 | 9.65 | 10.9 | 16.2 | 3.83 | 9.44 | 3.66 | 3.21 | 3.13 | 10.3 |  |  |  |  |  |  |  |  |  | 
Cc1ccc2c(=O)cc(-c3ccc(Cl)s3)[nH]c2n1 | > 100 | > 100 | > 100 | > 100 | > 100 | > 100 | > 29.3 | > 52.4 | 28.8 | 53.3 |  |  |  |  |  |  |  |  |  | 
C/C=C/c1cc(=O)c([C@@H]2OC(=O)c3cc(OC)cc(OC)c32)co1 |  | > 100 |  |  |  | 64.3 | > 100 | > 100 | 55.5 |  |  |  |  |  |  |  |  |  |  | 
O=C1C(Cl)=C(OCCCl)C(=O)c2c(O)ccc(O)c21 |  | 34.2 | 4 | 69.1 | 34.8 | 10.9 | 37.9 | 12.5 | 3.26 | 32.1 |  |  |  |  |  |  |  |  |  | 
Cc1cccc(Nc2nn3c(=O)c4c5c(sc4nc3s2)CCCC5)c1 | > 100 |  | 74.2 | > 100 |  | > 100 | > 100 | > 100 | > 100 | > 100 |  |  |  |  |  |  |  |  |  | 
Cc1cc(C)nc(SC2=C(Nc3ccc(C)c(Cl)c3)C(=O)N(Cc3ccccc3)C2=O)n1 | > 160 |  |  | > 160 | > 160 | > 160 | > 160 | > 160 | > 160 | > 160 | > 160 | > 160 |  |  | > 160 | > 160 | > 160 | > 160 | > 160 | > 160
CC(=O)NCCC1CN(C(=O)/C=C/I)c2ccccc21 (stereo not given) | 18.5 | 33.3 | 4.46 | 33.3 | 17.5 | 12.6 | 33.1 | 12.9 | 14.1 | 27.8 |  |  |  |  |  |  |  |  |  | 
